Data from ChEMBL document CHEMBL4825658, “Discovery of 3-(4-(2-((1H-Indol-5-yl)amino)-5-fluoropyrimidin-4-yl)-1H-pyrazol-1-yl)propanenitrile Derivatives as Selective TYK2 Inhibitors for the Treatment of Inflammatory Bowel Disease” (J Med Chem, 2021).
pIC50: −log10 of the molar value.

Experiments:
[1] = target: Tyrosine-protein kinase JAK2 (Homo sapiens, UniProt O60674); assay: Inhibition of recombinant human JAK2 (808 to end residues) KTFCGTPEYLAPE as substrate measured after 40 mins in presence of [gamm33P]ATP by scintillation counting based radiometry assay
Sequence of Tyrosine-protein kinase JAK2 (O60674 whole entry): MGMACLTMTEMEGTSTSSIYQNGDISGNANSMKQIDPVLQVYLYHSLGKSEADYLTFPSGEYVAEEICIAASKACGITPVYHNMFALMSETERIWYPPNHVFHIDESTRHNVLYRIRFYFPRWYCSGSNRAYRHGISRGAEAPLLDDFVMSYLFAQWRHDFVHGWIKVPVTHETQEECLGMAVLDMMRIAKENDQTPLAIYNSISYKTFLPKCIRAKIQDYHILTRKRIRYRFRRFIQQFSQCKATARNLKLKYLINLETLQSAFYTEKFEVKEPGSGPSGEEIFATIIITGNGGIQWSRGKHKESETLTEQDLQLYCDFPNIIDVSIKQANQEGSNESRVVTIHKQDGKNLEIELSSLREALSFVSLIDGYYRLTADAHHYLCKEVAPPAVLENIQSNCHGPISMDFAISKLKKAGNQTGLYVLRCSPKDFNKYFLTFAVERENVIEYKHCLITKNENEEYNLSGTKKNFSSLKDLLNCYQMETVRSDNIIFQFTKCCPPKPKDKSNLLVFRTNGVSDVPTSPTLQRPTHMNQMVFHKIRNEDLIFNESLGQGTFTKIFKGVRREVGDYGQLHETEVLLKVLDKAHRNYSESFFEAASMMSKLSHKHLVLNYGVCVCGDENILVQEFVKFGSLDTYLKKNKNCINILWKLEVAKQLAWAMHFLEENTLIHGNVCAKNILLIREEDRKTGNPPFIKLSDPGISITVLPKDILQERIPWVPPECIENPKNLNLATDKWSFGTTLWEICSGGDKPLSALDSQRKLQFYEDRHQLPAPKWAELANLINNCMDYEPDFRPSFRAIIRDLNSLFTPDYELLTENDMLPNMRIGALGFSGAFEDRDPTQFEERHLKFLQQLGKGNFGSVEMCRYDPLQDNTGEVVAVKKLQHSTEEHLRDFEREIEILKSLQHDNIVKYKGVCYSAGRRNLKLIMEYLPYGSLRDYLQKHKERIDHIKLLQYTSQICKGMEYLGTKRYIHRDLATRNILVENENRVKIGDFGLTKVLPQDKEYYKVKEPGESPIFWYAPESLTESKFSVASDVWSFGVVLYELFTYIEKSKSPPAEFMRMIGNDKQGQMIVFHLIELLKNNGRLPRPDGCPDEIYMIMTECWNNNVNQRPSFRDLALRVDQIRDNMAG

[2] = Metabolic stability in cryopreserved human liver microsomes assessed as half life; type: ADME, Microsome
[3] = target: Non-receptor tyrosine-protein kinase TYK2 (Homo sapiens, UniProt P29597); assay: Inhibition of recombinant human TYK2 (875 to end residues) using GGMEDIYFEFMGG as substrate incubated for 40 mins in presence of [gamma33P]ATP by scintillation counting based radiometry assay
Sequence of Non-receptor tyrosine-protein kinase TYK2 (P29597 whole entry): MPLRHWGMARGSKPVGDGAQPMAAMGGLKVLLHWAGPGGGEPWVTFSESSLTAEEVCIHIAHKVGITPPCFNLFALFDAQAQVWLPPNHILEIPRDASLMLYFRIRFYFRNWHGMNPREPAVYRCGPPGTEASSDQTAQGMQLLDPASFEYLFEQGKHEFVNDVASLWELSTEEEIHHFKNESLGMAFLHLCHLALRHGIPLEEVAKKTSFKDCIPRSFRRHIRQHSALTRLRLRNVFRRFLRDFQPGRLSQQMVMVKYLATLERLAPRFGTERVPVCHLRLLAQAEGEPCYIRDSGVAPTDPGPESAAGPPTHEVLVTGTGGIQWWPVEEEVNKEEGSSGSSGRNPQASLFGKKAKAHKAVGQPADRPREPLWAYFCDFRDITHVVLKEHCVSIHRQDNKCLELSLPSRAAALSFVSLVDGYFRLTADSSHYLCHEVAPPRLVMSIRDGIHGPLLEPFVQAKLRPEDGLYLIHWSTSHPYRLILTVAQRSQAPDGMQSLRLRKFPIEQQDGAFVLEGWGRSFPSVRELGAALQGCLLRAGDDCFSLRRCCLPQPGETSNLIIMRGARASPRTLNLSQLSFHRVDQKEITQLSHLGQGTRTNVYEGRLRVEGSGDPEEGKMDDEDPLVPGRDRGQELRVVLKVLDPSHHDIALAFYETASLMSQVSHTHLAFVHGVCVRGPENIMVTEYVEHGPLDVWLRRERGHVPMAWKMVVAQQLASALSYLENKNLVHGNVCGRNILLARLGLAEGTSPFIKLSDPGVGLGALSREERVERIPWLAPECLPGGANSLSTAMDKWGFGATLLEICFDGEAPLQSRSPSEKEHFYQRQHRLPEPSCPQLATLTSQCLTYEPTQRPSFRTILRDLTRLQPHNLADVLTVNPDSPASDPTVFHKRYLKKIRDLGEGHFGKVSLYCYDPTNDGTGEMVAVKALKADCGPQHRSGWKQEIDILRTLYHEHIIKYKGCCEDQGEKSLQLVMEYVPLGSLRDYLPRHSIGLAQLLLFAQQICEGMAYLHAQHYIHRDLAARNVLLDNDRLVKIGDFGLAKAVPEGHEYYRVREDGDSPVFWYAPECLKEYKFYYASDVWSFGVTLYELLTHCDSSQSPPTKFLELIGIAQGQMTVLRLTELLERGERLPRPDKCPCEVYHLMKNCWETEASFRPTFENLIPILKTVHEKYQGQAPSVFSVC

[4] = target: Tyrosine-protein kinase JAK1 (Homo sapiens, UniProt P23458); assay: Inhibition of human JAK1 (866 to end residues) using GEEPLYWSFPAKKK as substrate after 40 mins in presence of [gamma33P]ATP by scintillation counting based radiometry assay
Sequence of Tyrosine-protein kinase JAK1 (P23458 whole entry): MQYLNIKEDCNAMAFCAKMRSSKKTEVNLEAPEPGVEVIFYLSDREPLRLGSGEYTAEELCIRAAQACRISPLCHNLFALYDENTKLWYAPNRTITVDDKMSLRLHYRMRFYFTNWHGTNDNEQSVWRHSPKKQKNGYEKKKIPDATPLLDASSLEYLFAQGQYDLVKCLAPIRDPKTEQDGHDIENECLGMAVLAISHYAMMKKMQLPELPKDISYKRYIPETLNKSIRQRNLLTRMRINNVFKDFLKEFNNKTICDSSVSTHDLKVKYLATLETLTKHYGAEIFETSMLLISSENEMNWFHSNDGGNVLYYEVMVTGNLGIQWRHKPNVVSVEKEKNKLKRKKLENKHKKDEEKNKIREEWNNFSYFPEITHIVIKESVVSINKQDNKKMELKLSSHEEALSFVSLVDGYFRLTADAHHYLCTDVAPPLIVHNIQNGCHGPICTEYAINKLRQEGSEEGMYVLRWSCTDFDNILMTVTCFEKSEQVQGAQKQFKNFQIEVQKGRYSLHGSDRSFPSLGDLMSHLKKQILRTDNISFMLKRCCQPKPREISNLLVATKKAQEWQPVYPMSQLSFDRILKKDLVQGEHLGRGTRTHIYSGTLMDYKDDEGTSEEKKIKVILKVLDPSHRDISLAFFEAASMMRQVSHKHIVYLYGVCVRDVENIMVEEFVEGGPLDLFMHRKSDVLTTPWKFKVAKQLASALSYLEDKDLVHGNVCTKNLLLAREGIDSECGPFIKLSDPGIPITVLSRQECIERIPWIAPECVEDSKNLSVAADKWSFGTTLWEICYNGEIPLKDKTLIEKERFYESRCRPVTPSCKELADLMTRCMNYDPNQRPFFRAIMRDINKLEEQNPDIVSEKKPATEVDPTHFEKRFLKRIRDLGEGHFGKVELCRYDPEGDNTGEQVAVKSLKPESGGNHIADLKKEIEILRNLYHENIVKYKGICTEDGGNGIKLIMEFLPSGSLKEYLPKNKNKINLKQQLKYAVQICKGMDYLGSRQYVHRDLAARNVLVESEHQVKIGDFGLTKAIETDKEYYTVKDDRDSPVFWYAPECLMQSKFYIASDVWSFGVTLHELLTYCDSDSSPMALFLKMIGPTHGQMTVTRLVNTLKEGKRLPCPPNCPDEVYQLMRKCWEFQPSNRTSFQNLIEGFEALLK

[5] = target: T1, Tyrosine-protein kinase JAK3 (Homo sapiens, UniProt P52333); assay: Inhibition of recombinant human JAK3 (781 to end residues) using GGEEEEYFELVKKKK as substrate measured after 40 mins in presence of [gamma33P]ATP by scintillation counting based radiometry assay
T1 sequence (P52333 whole entry): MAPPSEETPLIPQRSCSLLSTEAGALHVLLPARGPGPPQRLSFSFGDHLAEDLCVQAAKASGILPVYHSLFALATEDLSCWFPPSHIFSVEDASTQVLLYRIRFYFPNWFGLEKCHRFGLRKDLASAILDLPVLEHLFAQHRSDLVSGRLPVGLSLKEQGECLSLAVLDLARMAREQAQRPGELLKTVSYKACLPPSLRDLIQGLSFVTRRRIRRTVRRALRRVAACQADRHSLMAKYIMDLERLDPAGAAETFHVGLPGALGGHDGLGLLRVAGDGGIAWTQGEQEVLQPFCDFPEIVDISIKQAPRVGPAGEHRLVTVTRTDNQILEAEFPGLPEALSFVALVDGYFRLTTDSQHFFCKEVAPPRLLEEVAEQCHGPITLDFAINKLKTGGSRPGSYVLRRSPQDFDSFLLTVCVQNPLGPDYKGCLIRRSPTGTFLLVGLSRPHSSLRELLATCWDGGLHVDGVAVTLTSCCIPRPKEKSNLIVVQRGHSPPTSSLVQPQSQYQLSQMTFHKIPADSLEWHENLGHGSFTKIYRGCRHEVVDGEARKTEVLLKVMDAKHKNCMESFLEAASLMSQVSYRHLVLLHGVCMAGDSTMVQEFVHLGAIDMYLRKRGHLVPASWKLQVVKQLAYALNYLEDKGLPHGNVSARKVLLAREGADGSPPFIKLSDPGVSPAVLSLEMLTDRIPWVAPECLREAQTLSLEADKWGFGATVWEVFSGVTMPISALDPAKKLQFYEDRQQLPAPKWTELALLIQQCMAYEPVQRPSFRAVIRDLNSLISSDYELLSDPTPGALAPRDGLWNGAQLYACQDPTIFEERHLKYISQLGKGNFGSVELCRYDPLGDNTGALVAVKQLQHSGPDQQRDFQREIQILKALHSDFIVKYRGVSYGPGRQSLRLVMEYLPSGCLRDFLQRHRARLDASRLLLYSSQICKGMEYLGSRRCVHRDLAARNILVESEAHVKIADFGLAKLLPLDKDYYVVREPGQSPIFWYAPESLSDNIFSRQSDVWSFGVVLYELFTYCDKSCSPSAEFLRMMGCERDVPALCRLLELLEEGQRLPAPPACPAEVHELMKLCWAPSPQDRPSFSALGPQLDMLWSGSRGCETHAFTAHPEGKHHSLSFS

Homo sapiens = species: Homo sapiens; assay: Selectivity index, ratio of IC50 for inhibition of recombinant human JAK2 (808 to end residues) to IC50 for inhibition of recombinant human TYK2 (875 to end residues)

| SMILES | pIC50 [1] | half-life [2] [min] | pIC50 [3] | pIC50 [4] | pIC50 [5] | Selectivity Index (Homo sapiens) |
| --- | --- | --- | --- | --- | --- | --- |
| Cn1ccc2cc(Nc3ncc(F)c(-c4cnn(CCC#N)c4)n3)ccc21 | 6.94 | 7.62 | 7.74 | – | – | – |
| CCOC(C)n1cc(-c2nc(Nc3ccc4c(c3)CCN4S(=O)(=O)c3ccc(C(F)(F)F)cc3)ncc2C)cn1 (stereo unspecified) | 6.47 | 15.3 | 7.42 | 6.42 | 6.29 | – |
| CC(=O)N1CCc2cc(Nc3ncc(C)c(-c4cnn(C(C)C)c4)n3)ccc21 | 8.22 | – | 8.74 | – | – | 3.31 |
| Cc1cnc(Nc2ccc3c(c2)CCN3C(=O)C2CC2)nc1-c1cnn(C(C)C)c1 | 8.41 | – | 8.42 | – | – | 1.03 |
| N#CCCn1cc(-c2nc(Nc3ccc4c(c3)CCN4S(=O)(=O)c3ccc(C(F)(F)F)cc3)ncc2F)cn1 | – | 9.2 | 8.05 | – | – | – |
| Cc1cnc(Nc2ccc3c(c2)CCN3C(=O)[C@H]2CCCN2C(=O)C2(C#N)CC2)nc1-c1cnn(C(C)C)c1 | 8.42 | – | 8.69 | – | – | 1.85 |
| Cc1cnc(Nc2ccc3c(c2)CCN3C(=O)c2cccc(C(F)(F)F)c2)nc1-c1cnn(C(C)C)c1 | 7.18 | – | 7.84 | – | – | 4.49 |
| N#CCCn1cc(-c2nc(Nc3ccc4c(c3)CNC4=O)ncc2F)cn1 | 7.24 | 56.8 | 8.15 | – | – | – |
| N#CCCn1cc(-c2nc(Nc3ccc4c(c3)CCN4C(=O)C3(C#N)CC3)ncc2F)cn1 | 7.55 | 31.8 | 8.22 | 6.59 | 6.72 | – |
| Cc1cnc(Nc2ccc3c(c2)CCN3C(=O)Cc2ccc(OC(F)(F)F)cc2)nc1-c1cnn(C(C)C)c1 | 6.40 | – | 7.29 | – | – | 7.8 |
| N#CCCn1cc(-c2nc(Nc3ccc4c(ccn4S(=O)(=O)c4ccc(C(F)(F)F)cc4)c3)ncc2F)cn1 | – | 38.1 | – | – | – | – |
| N#CCCn1cc(-c2nc(Nc3ccc4c(c3)CCN4C(=O)CN3CCS(=O)(=O)CC3)ncc2F)cn1 | – | > 120 | 8.70 | 6.90 | 6.61 | – |
| Cc1cnc(Nc2ccc3c(c2)CCN3C(=O)C2CC2(F)F)nc1-c1cnn(C(C)C)c1 (stereo unspecified) | 8.18 | – | 8.24 | – | – | 1.16 |
| CC(C)(C)c1ccc(C(=O)N2CCc3cc(Nc4ncc(F)c(-c5cnn(CCC#N)c5)n4)ccc32)cc1 | 6.22 | – | 7.40 | – | – | – |
| N#CCCn1cc(-c2nc(Nc3ccc4c(ccn4C(=O)C4CC4)c3)ncc2F)cn1 | 6.52 | 69.3 | 6.82 | – | – | – |
| Cc1cnc(Nc2ccc3c(c2)CCN3S(=O)(=O)C2CC2)nc1-c1cnn(C(C)C)c1 | 8.62 | – | 8.57 | – | – | < 1 |
| Cc1cnc(Nc2ccc3c(c2)CCN3C(=O)CN2CCS(=O)(=O)CC2)nc1-c1cnn(C(C)C)c1 | 8.52 | – | 8.70 | – | – | 1.51 |
| CCCS(=O)(=O)N1CCc2cc(Nc3ncc(C)c(-c4cnn(C(C)C)c4)n3)ccc21 | 8.64 | – | 8.42 | – | – | < 1 |
| CCCn1cc(-c2nc(Nc3ccc4c(c3)CCN4S(=O)(=O)c3ccc(C(F)(F)F)cc3)ncc2C)cn1 | – | 2.38 | 7.64 | – | – | – |
| N#CCCn1cc(-c2nc(Nc3ccc4c(c3)CCN4)ncc2F)cn1 | 6.53 | 3.2 | 8.70 | – | – | – |

| SMILES | pIC50 [1] | half-life [2] [min] | pIC50 [3] | pIC50 [4] | pIC50 [5] | Selectivity Index (Homo sapiens) |
| --- | --- | --- | --- | --- | --- | --- |
| CCS(=O)(=O)N1CCc2cc(Nc3ncc(C)c(-c4cnn(C(C)C)c4)n3)ccc21 | 8.57 | – | 8.79 | – | – | 1.69 |
| Cc1cnc(Nc2ccc3c(c2)CCN3C(=O)[C@@H]2C[C@@H]2F)nc1-c1cnn(C(C)C)c1 | 7.98 | – | 8.20 | – | – | 1.65 |
| Cc1cnc(Nc2ccc3c(c2)CCN3S(=O)(=O)c2ccc(C(F)(F)F)cc2)nc1-c1cnn(C2CC2)c1 | – | 4.13 | 7.22 | – | – | – |
| Cc1cnc(Nc2ccc3c(c2)CCN3S(=O)(=O)c2ccc3c(c2)CC(=O)N3)nc1-c1cnn(C(C)C)c1 | 7.60 | – | 7.91 | – | – | 2.03 |
| Cc1cnc(Nc2ccc(N3CCC(N(C)CCO)CC3)c(F)c2)nc1-c1cnn(C(C)C)c1 | – | – | 8.70 | – | – | – |
| COc1ccc(S(=O)(=O)N2CCc3cc(Nc4ncc(C)c(-c5cnn(C(C)C)c5)n4)ccc32)cc1 | 7.62 | – | 8.11 | – | – | 3.08 |
| Cc1cnc(Nc2ccc(NS(=O)(=O)c3ccc(C(F)(F)F)cc3)c(F)c2)nc1-c1cnn(C(C)C)c1 | 7.60 | – | 7.89 | 7.39 | 6.16 | – |
| N#CCCn1cc(-c2nc(Nc3ccc4c(c3)CCN4C(=O)c3ccc(C(F)(F)F)cc3)ncc2F)cn1 | 6.82 | 17.2 | 8.30 | – | – | – |
| Cc1cnc(Nc2ccc3c(c2)CCN3S(=O)(=O)c2ccc(C(F)(F)F)cc2)nc1-c1cnn(CCC#N)c1 | 7.68 | 22 | 8.70 | 7.08 | < 6.00 | – |
| Cc1cnc(Nc2ccc3c(c2)CCN3S(=O)(=O)c2ccc(C(F)(F)F)cc2)nc1-c1cnn(C(C)C)c1 | 7.09 | 3.94 | 7.80 | 6.47 | < 6.00 | 5.12 |
| Cc1cnc(Nc2ccc3c(c2)CCN3C(=O)[C@H]2CCCN2)nc1-c1cnn(C(C)C)c1 | 8.52 | – | 8.30 | – | – | < 1 |
| Cc1cnc(Nc2ccc3c(c2)CCN3S(=O)(=O)c2ccc(C(F)(F)F)cc2)nc1-c1cnn(C2CCC2)c1 | 6.79 | 19.5 | 7.92 | 6.48 | < 6.00 | – |
| Cc1cnc(Nc2ccc3c(c2)CNC3=O)nc1-c1cnn(CCC#N)c1 | 8.96 | 7.79 | 9.17 | – | – | – |
| Cc1cnc(Nc2ccc3c(c2)CCN3C(=O)c2ccc(C(F)(F)F)cc2F)nc1-c1cnn(C(C)C)c1 | 7.60 | – | 7.97 | – | – | 2.36 |
| Cc1cnc(Nc2ccc3c(c2)CCN3C(=O)CCN2CCOCC2)nc1-c1cnn(C(C)C)c1 | 7.92 | – | 8.02 | – | – | 1.24 |
| N#CCCn1cc(-c2nc(Nc3ccc4c(c3)CCN4S(=O)(=O)C(F)(F)F)ncc2F)cn1 | 6.71 | 9.8 | 8.40 | 6.04 | < 6.00 | – |
| Cc1cnc(Nc2ccc3c(c2)CCN3S(=O)(=O)c2ccc(C(F)(F)F)cc2)nc1-c1cnn(C)c1 | < 6.00 | 7.3 | 6.83 | < 6.00 | < 6.00 | – |
| Cc1cnc(Nc2ccc3c(c2)CCN3C(=O)[C@@H](O)CO)nc1-c1cnn(C(C)C)c1 | 7.67 | – | 7.96 | – | – | 1.95 |
| Cc1cnc(Nc2ccc3c(c2)CCN3S(=O)(=O)c2ccc3c(c2)CC(=O)N3C)nc1-c1cnn(C(C)C)c1 | 7.90 | – | 7.20 | – | – | < 1 |
